The results in this text go back to patent publication EP4610269A1, “UROKINASE PLASMINOGEN ACTIVATOR SURFACE RECEPTOR (UPAR) LIGANDS FOR DIAGNOSTIC OR THERAPEUTIC USE” (3B Pharmaceuticals GmbH, priority 2024, dated 2025).

Where two headings read alike, the source gives them in different places. *1 amine or outer side, *2 acyl side, *3 side chain or, on linkers, in order; H or OH if unused. Where a SMILES comes first, the peptide text is derived from it. Bridges are numbered along the chain shown (N, C = ends). [ ]: non-standard residue; d: D form. The star is where a group is joined. X6 = O=C(O)CN1CCN(CC(=O)O)CCN(CC(=O)NCCCOCCOCCOCCCN*)CCN(CC(=O)O)CC1; DOTA = O=C(O)CN1CCN(CC(=O)O)CCN(CC(=O)*)CCN(CC(=O)O)CC1; Propanoyl(3-NMe2) = CN(C)CCC(=O)*; Hyp = O=C(O)[C@@H]1C[C@@H](O)CN1; NMeI = CC[C@H](C)[C@H](NC)C(=O)O; 4Pal = N[C@@H](Cc1ccncc1)C(=O)O; Pentanoyl(4-Me) = CC(C)CCC(=O)*; Cit = NC(=O)NCCC[C@H](N)C(=O)O; NMeNle = CCCC[C@H](NC)C(=O)O; Suc = O=C(CCC(=O)[*:2])[*:1]; Nle = CCCC[C@H](N)C(=O)O; Nva = CCC[C@H](N)C(=O)O; Pentanoyl = CCCCC(=O)* A value given as a limit tells only on which side of the number the result lay.

Assay [1] has as its target T1, uPAR-expressing HEC-265 human endometrial adenocarcinoma cells (Homo sapiens, UniProt Q03405).
T1 construct: Cell surface uPAR-expressing HEC-265 human endometrial adenocarcinoma cells; host or cells: HEC-265
In words: Competitive FACS binding assay. The settings on record: pIC50 category of FACS binding. The gist of the method: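 HEC-265 cells incubated 1 h at 4 °C with 10 nM biotinylated uPAR peptide tracer plus increasing test compound, then stained with APC-streptavidin on ice. Median APC fluorescence by flow cytometry; 4PL fit gives pIC50.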
(In flow cytometry, cells or beads pass a laser one at a time.)

Another assay addresses T2, human uPAR (uPAR-Fc) (Homo sapiens, UniProt Q03405).
T2 construct: comprising amino acids Leu23-Arg303 according to UniProt entry Q03405.1; purchased R&D Systems 10378-UK-100
Nature of the assay: Surface plasmon resonance (SPR) assay, single cycle kinetics. The class given is binding. Conditions: pKD category for uPAR SPR activity assay, uPAR-Fc on Protein A-Chip, 25°C, read-out: pKD CAT (converted). The gist of the method: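 uPAR-Fc (Leu23-Arg303 extracellular domains, human IgG1 Fc) captured on Protein A chip to ~2000 RU; single-cycle kinetics at 25°C in HEPES running buffer pH 7.4 with 0.1% DMSO. KD from double-referenced sensorgrams fitted to 1:1 Langmuir model, reported as pKD.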
A general note: In SPR one partner is held on a chip, and binding of the other changes the refractive index at the surface.

Usually IC50 stands for the midpoint of a concentration-inhibition curve.

T2 sequence (Q03405 23-303): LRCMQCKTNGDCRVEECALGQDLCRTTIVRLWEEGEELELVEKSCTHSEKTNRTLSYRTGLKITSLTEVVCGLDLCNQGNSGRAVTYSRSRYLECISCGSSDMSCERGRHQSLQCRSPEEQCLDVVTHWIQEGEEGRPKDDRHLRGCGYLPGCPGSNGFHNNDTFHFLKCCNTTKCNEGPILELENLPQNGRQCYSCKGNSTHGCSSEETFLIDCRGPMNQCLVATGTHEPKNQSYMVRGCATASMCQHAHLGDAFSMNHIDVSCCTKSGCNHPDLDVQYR
T1 sequence (Q03405 23-335): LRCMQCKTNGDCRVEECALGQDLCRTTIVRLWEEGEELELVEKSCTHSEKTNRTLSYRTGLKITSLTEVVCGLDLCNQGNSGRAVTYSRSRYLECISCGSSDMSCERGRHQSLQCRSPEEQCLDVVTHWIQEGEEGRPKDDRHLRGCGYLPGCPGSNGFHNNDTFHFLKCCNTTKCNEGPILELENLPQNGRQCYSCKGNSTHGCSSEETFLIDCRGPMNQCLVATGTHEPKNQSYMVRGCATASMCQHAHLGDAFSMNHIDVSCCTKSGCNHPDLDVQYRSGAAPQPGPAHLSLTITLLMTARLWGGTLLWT

Regarding `CC[C@H](C)[C@@H]1NC(=O)[C@@H](C)NC(=O)[C@@H]2CCCN2C(=O)[C@H](Cc2ccccc2)NC(=O)[C@H](Cc2ccc(O)cc2)NC(=O)[C@H](CCC(N)=O)NC(=O)[C@H](CCCNC(N)=O)NC(=O)[C@@H](NC(=O)CCN(C)C)CSSC[C@@H](C(N)=O)NC(=O)[C@H](CC(C)C)NC1=O` [UPAR-333, Dmba-[Cys-Cit-Gln-Tyr-Phe-Pro-ala-Ile-Leu-Cys]-NH2] ({Propanoyl(3-NMe2)}-C[Cit]QYFP[dA]ILC-NH2; disulfide 1-10), the 50% inhibitory concentration (IC50) in assay [1] is 39.8 to 100 nM. The Kd on human uPAR (uPAR-Fc) was more than 100 nM.
For `CC[C@H](C)[C@@H]1NC(=O)[C@@H](C)NC(=O)[C@@H]2CCCN2C(=O)[C@H](Cc2ccccc2)NC(=O)[C@H](Cc2ccc(O)cc2)NC(=O)[C@H](CCC(N)=O)NC(=O)[C@H](CCCNC(N)=O)NC(=O)[C@@H](NC(=O)CNC(C)=O)CSSC[C@@H](C(N)=O)NC(=O)[C@H](CC(C)C)NC1=O` [UPAR-334, Ac-Gly-[Cys-Cit-Gln-Tyr-Phe-Pro-ala-Ile-Leu-Cys]-NH2] (Ac-GC[Cit]QYFP[dA]ILC-NH2; disulfide 2-11), in that order: not below 126 nM and more than 100 nM.
For `CCCCC(=O)N[C@H]1CSSC[C@@H](C(N)=O)NC(=O)[C@H](CCC)NC(=O)[C@H]([C@@H](C)CC)NC(=O)[C@@H]2C[C@@H](O)CN2C(=O)[C@@H]2CCCN2C(=O)[C@H](Cc2ccccc2)NC(=O)[C@H](Cc2ccncc2)NC(=O)[C@H](CCCCNC(=O)CN2CCN(CC(=O)O)CCN(CC(=O)O)CCN(CC(=O)O)CC2)NC(=O)[C@H](CCCNC(N)=O)NC1=O` [UPAR-336, Pent-[Cys-Cit-Lys(DOTA)-Ppa-Phe-Pro-Hyp-Ile-Nva-Cys]-NH2] (Pentanoyl-C[Cit]K(DOTA)[4Pal]FP[Hyp]I[Nva]C-NH2; disulfide 1-10), in that order: not above 10 nM and less than 1.58 nM.
For `CCCCC(=O)N[C@H]1CSSC[C@@H](C(N)=O)NC(=O)[C@H](CCC)NC(=O)[C@H]([C@@H](C)CC)NC(=O)[C@@H]2C[C@@H](O)CN2C(=O)[C@H](CCCC)N(C)C(=O)[C@H](Cc2ccccc2)NC(=O)[C@H](Cc2ccc(O)cc2)NC(=O)[C@H](CCC(N)=O)NC(=O)[C@H](CCCNC(=N)N)NC1=O` [UPAR-337, Pent-[Cys-Arg-Gln-Tyr-Phe-Nmb-Hyp-Ile-Nva-Cys]-NH2] (Pentanoyl-CRQYF[NMeNle][Hyp]I[Nva]C-NH2; disulfide 1-10), in that order: not below 126 nM and less than 1.58 nM.
With `CC[C@H](C)[C@@H]1NC(=O)[C@@H](C)NC(=O)[C@@H]2CCCN2C(=O)[C@H](Cc2ccccc2)NC(=O)[C@H](Cc2ccc(O)cc2)NC(=O)[C@H](C)NC(=O)[C@H](CCCNC(N)=O)NC(=O)[C@@H](NC(=O)CCC(C)C)CSSC[C@@H](C(N)=O)NC(=O)[C@H](CC(C)C)NC1=O` [UPAR-339, iHex-[Cys-Cit-Ala-Tyr-Phe-Pro-ala-Ile-Leu-Cys]-NH2] ({Pentanoyl(4-Me)}-C[Cit]AYFP[dA]ILC-NH2; disulfide 1-10), in assay [1], the IC50 was not above 10 nM. Further, the Kd on human uPAR (uPAR-Fc) is 1.58 to 10 nM.
Taken in the same sequence, the figures for `CC[C@H](C)[C@H]1C(=O)N[C@@H](CC(C)C)C(=O)N[C@H](C(N)=O)CSSC[C@H](NC(=O)CCC(C)C)C(=O)N[C@@H](CCCNC(N)=O)C(=O)N[C@@H](CCC(N)=O)C(=O)N[C@@H](Cc2ccc(O)cc2)C(=O)N[C@@H](Cc2ccccc2)C(=O)N2CCC[C@H]2C(=O)N[C@H](C)C(=O)N1C` [UPAR-340, iHex-[Cys-Cit-Gln-Tyr-Phe-Pro-ala-Nmi-Leu-Cys]-NH2] ({Pentanoyl(4-Me)}-C[Cit]QYFP[dA][NMeI]LC-NH2; disulfide 1-10) were not below 126 nM and 10 to 100 nM.
For `CC[C@H](C)[C@@H]1NC(=O)[C@H](C)NC(=O)[C@@H]2CCCN2C(=O)[C@H](Cc2ccccc2)NC(=O)[C@H](Cc2ccc(O)cc2)NC(=O)[C@H](CCSC)NC(=O)[C@H](CCCNC(=N)N)NC(=O)[C@@H](NC(=O)[C@H](CC(C)C)NC(=O)[C@H](CC(=O)O)NC(C)=O)CSSC[C@@H](C(N)=O)NC(=O)[C@H](CC(C)C)NC1=O` [UPAR-341, Ac-Asp-Leu-[Cys-Arg-Met-Tyr-Phe-Pro-Ala-Ile-Leu-Cys]-NH2] (Ac-DLCRMYFPAILC-NH2; disulfide 3-12), in that order: not above 10 nM and less than 1.58 nM.
For `CCCCC(=O)N[C@H]1CSSC[C@@H](C(N)=O)NC(=O)[C@H](CCC)NC(=O)[C@H]([C@@H](C)CC)NC(=O)[C@@H]2C[C@@H](O)CN2C(=O)[C@@H]2CCCN2C(=O)[C@H](Cc2ccccc2)NC(=O)[C@H](Cc2ccc(O)cc2)NC(=O)[C@H](CCCCNC(=O)CN2CCN(CC(=O)O)CCN(CC(=O)O)CCN(CC(=O)O)CC2)NC(=O)[C@H](CO)NC1=O` [UPAR-342, Pent-[Cys-Ser-Lys(DOTA)-Tyr-Phe-Pro-Hyp-Ile-Nva-Cys]-NH2] (Pentanoyl-CSK(DOTA)YFP[Hyp]I[Nva]C-NH2; disulfide 1-10), in that order: not above 10 nM and less than 1.58 nM.
On to `CC[C@H](C)[C@@H]1NC(=O)[C@@H](C)NC(=O)[C@@H]2CCCN2C(=O)[C@H](Cc2ccc(O)cc2)NC(=O)[C@H](Cc2ccc(O)cc2)NC(=O)[C@H](CCC(N)=O)NC(=O)[C@H](CCCNC(N)=O)NC(=O)[C@@H](NC(=O)CCC(C)C)CSSC[C@@H](C(N)=O)NC(=O)[C@H](CC(C)C)NC1=O` [UPAR-343, iHex-[Cys-Cit-Gln-Tyr-Tyr-Pro-ala-Ile-Leu-Cys]-NH2] ({Pentanoyl(4-Me)}-C[Cit]QYYP[dA]ILC-NH2; disulfide 1-10), for which the half-inhibitory concentration (IC50) in assay [1] was 12.6 to 31.6 nM. In addition, the Kd on human uPAR (uPAR-Fc) is 10 to 100 nM.
As for `CCCCC(=O)N[C@H]1CSSC[C@@H](C(N)=O)NC(=O)[C@H](CCC)NC(=O)[C@H]([C@@H](C)CC)NC(=O)[C@H](CC(=O)O)NC(=O)[C@@H]2CCCN2C(=O)[C@H](Cc2ccccc2)NC(=O)[C@H](Cc2ccc(O)cc2)NC(=O)[C@H](CCC(N)=O)NC(=O)[C@H](CCCNC(=N)N)NC1=O` [UPAR-344, Pent-[Cys-Arg-Gln-Tyr-Phe-Pro-Asp-Ile-Nva-Cys]-NH2] (Pentanoyl-CRQYFPDI[Nva]C-NH2; disulfide 1-10), in assay [1], the 50% inhibitory concentration (IC50) was not above 10 nM. Further, the Kd on human uPAR (uPAR-Fc) was less than 1.58 nM.
For `CCCC[C@@H]1NC(=O)[C@H]([C@@H](C)CC)NC(=O)[C@@H](C)NC(=O)[C@@H]2CCCN2C(=O)[C@H](Cc2ccccc2)NC(=O)[C@H](Cc2ccc(O)cc2)NC(=O)[C@H](CCC(N)=O)NC(=O)[C@H](CCCNC(N)=O)NC(=O)[C@@H](NC(=O)CCC(C)C)CSSC[C@@H](C(N)=O)NC1=O` [UPAR-345, iHex-[Cys-Cit-Gln-Tyr-Phe-Pro-ala-Ile-Nle-Cys]-NH2] ({Pentanoyl(4-Me)}-C[Cit]QYFP[dA]I[Nle]C-NH2; disulfide 1-10), the 50% inhibitory concentration (IC50) in assay [1] is not above 10 nM. On human uPAR (uPAR-Fc) (single cycle kinetics), the Kd is 1.58 to 10 nM.
Taken in the same sequence, the figures for `CCCC[C@H](NC(=O)CCC(=O)NCCCOCCOCCOCCCNC(=O)CN1CCN(CC(=O)O)CCN(CC(=O)O)CCN(CC(=O)O)CC1)C(=O)N[C@@H](CC(=O)O)C(=O)N[C@@H](CC(C)C)C(=O)N[C@H]1CSSC[C@@H](C(N)=O)NC(=O)[C@H](CC(C)C)NC(=O)[C@H]([C@@H](C)CC)NC(=O)[C@H](C)NC(=O)[C@@H]2CCCN2C(=O)[C@H](Cc2ccccc2)NC(=O)[C@H](Cc2ccc(O)cc2)NC(=O)[C@H](CCSC)NC(=O)[C@H](CCCNC(=N)N)NC1=O` [UPAR-347, DOTA-Ttds-Nle-Asp-Leu-[Cys-Arg-Met-Tyr-Phe-Pro-Ala-Ile-Leu-Cys]-NH2] ({X6-Suc}-[Nle]DLCRMYFPAILC-NH2; disulfide 4-13) were not above 10 nM and less than 1.58 nM.
